Target: Intestinal-type alkaline phosphatase (Homo sapiens, UniProt P09923)
Test: human IAP inhibitors, dose response, biochemical, luminescent, uHTS hits, set 2 (AID 488793)

Intestinal-type alkaline phosphatase, sequence (P09923 whole entry): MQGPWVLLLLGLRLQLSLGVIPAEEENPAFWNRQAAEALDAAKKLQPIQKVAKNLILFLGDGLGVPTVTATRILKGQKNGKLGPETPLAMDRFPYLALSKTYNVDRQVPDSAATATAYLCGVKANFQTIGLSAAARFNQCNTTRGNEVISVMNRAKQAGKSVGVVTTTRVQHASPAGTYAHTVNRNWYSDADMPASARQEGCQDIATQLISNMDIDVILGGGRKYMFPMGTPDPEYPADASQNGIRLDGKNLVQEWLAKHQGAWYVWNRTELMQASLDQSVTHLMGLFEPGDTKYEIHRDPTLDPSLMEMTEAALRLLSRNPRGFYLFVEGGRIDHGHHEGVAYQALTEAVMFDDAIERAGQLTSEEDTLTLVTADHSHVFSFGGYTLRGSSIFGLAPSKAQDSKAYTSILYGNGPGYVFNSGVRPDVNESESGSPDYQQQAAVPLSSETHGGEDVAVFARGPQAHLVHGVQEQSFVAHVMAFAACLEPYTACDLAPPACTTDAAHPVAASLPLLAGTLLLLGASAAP

SMILES	IC50
CC(N=Nc1ccccc1[N+](=O)[O-])c1ccc([N+](=O)[O-])cc1 (centres undefined)	77.3 µM
CCOC1=CC(=Cc2c(C)[nH]oc2=O)C=C(Br)C1=O [4-[(Z)-(3-bromo-5-ethoxy-4-oxo-1-cyclohexa-2,5-dienylidene)methyl]-3-methyl-2H-isoxazol-5-one]	35.8 µM
C=c1[nH]n(Cc2ccccc2)c(=O)c1=Cc1ccc(N(C)C)cc1 [(4Z)-4-[[4-(dimethylamino)phenyl]methylidene]-5-methyl-2-(phenylmethyl)-3-pyrazolone]	39.4 µM
O=C(O)[C@H]1O[C@@H](Oc2c(-c3ccc(O)c(O)c3)oc3cc(O)cc(=O)c-3c2O)[C@H](O)[C@@H](O)[C@@H]1O [quercetin glucuronide]	0.891 µM

Source: BindingDB's records for doi:10.7270/Q2154FH8 (Burnham Center For Chemical Genomics, 2010)
